Test results published in patent publication US10793536B2, “Vortioxetine pamoic acid salt and crystal form thereof” (SHANGHAI SYNERGY PHARMACEUTICAL SCIENCES CO., LTD, priority 2016, dated 2020).
Read-outs that look alike come from different tables or passages of the source.

Experiments:
[1] = single dose of vortioxetine injected to the body of the rat; FDA pharmacological summary document No. 204447Orig 1s000; cited from earlier work
[2] = Wistar rat, single intramuscular injection 45.6 mg/kg; for AUC(0-t), Mean / AUC(0-∞), Mean / Cmax, Mean / MRT(0-∞), Mean / Tmax, Mean / t1/2z, Mean: non-compartment model
Experimental: Weighing 75.1 mg of each of crystal forms A, B and D of vortioxetine semi pamoic acid, adding 1 mL diluent (water for Injection containing 1% CMC-Na and 5% mannitol) to each of them, and whirling for 2 min to obtain 3 suspensions (pH˜7) of 3 crystal forms with a concentration of 45.6 mg/mL.
Drugs are administered to 9 male clean Wistar rats (Shanghai Sippr BK Laboratory Animals Ltd) with a weight range of 183.0˜186.3 g in accordance with Table 4.
Collecting blood samples by jugular puncture, about 0.2 mL for each sample, resisting against blood coagulation using heparin sodium, placing the collected blood samples on ice, wherein the blood collecting time is as follows: 30 min, 1 hrs, 2 hrs, 4 hrs, 8 hrs, 24 hrs, 48 hrs, 72 hrs, 120 hrs, 168 hrs, 216 hrs, 264 hrs, 312 hrs, 360 hrs, 504 hrs, and 672 hrs […] after administration of drug; placing the collected blood samples on ice, and separating the blood plasma centrifugally (centrifugal condition: 8,000 revolutions/min, 6 minutes, 2-8° C.); storing the collected blood plasma at −70° C. before analysis.
Separately calculating the pharmacokinetic parameters AUC0-t, AUC0-∞, MRT0-∞, Cmax, Tmax, T1/2 etc. of the tested samples using a non-compartment model for pharmacokinetic calculation software WinNonlin5.2 according to the blood concentration data of the drug. For samples with a concentration lower than the quantitative lower limit, when the pharmacokinetic parameters are calculated, the samples sampled before reaching Cmax should be calculated at zero value; after reaching Cmax, the samples at the sample point should be calculated by “below the limit of quantitation” (BLQ).

SMILES: Cc1ccc(Sc2ccccc2N2CCNCC2)c(C)c1 [vortioxetine, 1-[2-(2,4-dimethylphenylthiorueaalkyl)phenyl] piperazine]
- half-life period t1/2 [1]: more than two hours

SMILES: Cc1ccc(Sc2ccccc2N2CCNCC2)c(C)c1.Cc1ccc(Sc2ccccc2N2CCNCC2)c(C)c1.O=C(O)c1cc2ccccc2c(Cc2c(O)c(C(=O)O)cc3ccccc23)c1O [Crystal form D of vortioxetine semi pamoic acid salt] [Crystal Form D Vortioxetine Semi Pamoic Acid Salt]
- Concentration of vortioxetine in plasma, Mean ([2]; blood sampling time 0.5 h): 4.34 ng/mL
- Concentration of vortioxetine in plasma, Mean ([2]; blood sampling time 1 h): 8.10 ng/mL
- Concentration of vortioxetine in plasma, Mean ([2]; blood sampling time 2 h): 11.59 ng/mL
- Concentration of vortioxetine in plasma, Mean ([2]; blood sampling time 4 h): 15.37 ng/mL
- Concentration of vortioxetine in plasma, Mean ([2]; blood sampling time 8 h): 23.28 ng/mL
- Concentration of vortioxetine in plasma, Mean ([2]; blood sampling time 24 h): 24.08 ng/mL
- Concentration of vortioxetine in plasma, Mean ([2]; blood sampling time 48 h): 14.11 ng/mL
- Concentration of vortioxetine in plasma, Mean ([2]; blood sampling time 72 h): 19.52 ng/mL
- Concentration of vortioxetine in plasma, Mean ([2]; blood sampling time 120 h): 41.99 ng/mL
- Concentration of vortioxetine in plasma, Mean ([2]; blood sampling time 168 h): 46.20 ng/mL
- Concentration of vortioxetine in plasma, Mean ([2]; blood sampling time 216 h): 16.02 ng/mL
- Concentration of vortioxetine in plasma, Mean ([2]; blood sampling time 264 h): 5.66 ng/mL
- Concentration of vortioxetine in plasma, Mean ([2]; blood sampling time 312 h): 3.66 ng/mL
- Concentration of vortioxetine in plasma, Mean ([2]; blood sampling time 360 h): 2.03 ng/mL
- Concentration of vortioxetine in plasma, Mean ([2]; blood sampling time 504 h): 1.56 ng/mL
- Concentration of vortioxetine in plasma, Mean ([2]; blood sampling time 672 h): 1.69 ng/mL
- AUC(0-t), Mean [2]: 7856.57 ng·h/mL
- AUC(0-∞), Mean [2]: 8392.02 ng·h/mL
- Cmax, Mean [2]: 48.65 ng/mL
- MRT(0-∞), Mean [2]: 162.48 h
- Tmax, Mean [2]: 152.00 h
- t1/2z, Mean [2]: 228.84 h

SMILES: Cc1ccc(Sc2ccccc2N2CCNCC2)c(C)c1.Cc1ccc(Sc2ccccc2N2CCNCC2)c(C)c1.O=C(O)c1cc2ccccc2c(Cc2c(O)c(C(=O)O)cc3ccccc23)c1O [Crystal form B of vortioxetine semi pamoic acid salt] [Crystal Form B Vortioxetine Semi Pamoic Acid Salt]
- Concentration of vortioxetine in plasma, Mean ([2]; blood sampling time 0.5 h): 2.14 ng/mL
- Concentration of vortioxetine in plasma, Mean ([2]; blood sampling time 1 h): 4.56 ng/mL
- Concentration of vortioxetine in plasma, Mean ([2]; blood sampling time 2 h): 10.17 ng/mL
- Concentration of vortioxetine in plasma, Mean ([2]; blood sampling time 4 h): 18.05 ng/mL
- Concentration of vortioxetine in plasma, Mean ([2]; blood sampling time 8 h): 21.12 ng/mL
- Concentration of vortioxetine in plasma, Mean ([2]; blood sampling time 24 h): 17.67 ng/mL
- Concentration of vortioxetine in plasma, Mean ([2]; blood sampling time 48 h): 14.56 ng/mL
- Concentration of vortioxetine in plasma, Mean ([2]; blood sampling time 72 h): 15.65 ng/mL
- Concentration of vortioxetine in plasma, Mean ([2]; blood sampling time 120 h): 32.47 ng/mL
- Concentration of vortioxetine in plasma, Mean ([2]; blood sampling time 168 h): 40.21 ng/mL
- Concentration of vortioxetine in plasma, Mean ([2]; blood sampling time 216 h): 24.00 ng/mL
- Concentration of vortioxetine in plasma, Mean ([2]; blood sampling time 264 h): 15.19 ng/mL
- Concentration of vortioxetine in plasma, Mean ([2]; blood sampling time 312 h): 10.55 ng/mL
- Concentration of vortioxetine in plasma, Mean ([2]; blood sampling time 360 h): 6.02 ng/mL
- Concentration of vortioxetine in plasma, Mean ([2]; blood sampling time 504 h): 2.62 ng/mL
- Concentration of vortioxetine in plasma, Mean ([2]; blood sampling time 672 h): 2.06 ng/mL
- AUC(0-t), Mean [2]: 8588.42 ng·h/mL
- AUC(0-∞), Mean [2]: 8939.49 ng·h/mL
- Cmax, Mean [2]: 40.21 ng/mL
- MRT(0-∞), Mean [2]: 226.30 h
- Tmax, Mean [2]: 168 h
- t1/2z, Mean [2]: 116.6 h

SMILES: Cc1ccc(Sc2ccccc2N2CCNCC2)c(C)c1.Cc1ccc(Sc2ccccc2N2CCNCC2)c(C)c1.O=C(O)c1cc2ccccc2c(Cc2c(O)c(C(=O)O)cc3ccccc23)c1O [Crystal form A of vortioxetine semi pamoic acid salt] [Crystal Form a Vortioxetine Semi Pamoic Acid Salt]
- Concentration of vortioxetine in plasma, Mean ([2]; blood sampling time 0.5 h): 3.12 ng/mL
- Concentration of vortioxetine in plasma, Mean ([2]; blood sampling time 1 h): 5.80 ng/mL
- Concentration of vortioxetine in plasma, Mean ([2]; blood sampling time 2 h): 8.41 ng/mL
- Concentration of vortioxetine in plasma, Mean ([2]; blood sampling time 4 h): 10.75 ng/mL
- Concentration of vortioxetine in plasma, Mean ([2]; blood sampling time 8 h): 16.22 ng/mL
- Concentration of vortioxetine in plasma, Mean ([2]; blood sampling time 24 h): 15.77 ng/mL
- Concentration of vortioxetine in plasma, Mean ([2]; blood sampling time 48 h): 8.70 ng/mL
- Concentration of vortioxetine in plasma, Mean ([2]; blood sampling time 72 h): 11.68 ng/mL
- Concentration of vortioxetine in plasma, Mean ([2]; blood sampling time 120 h): 35.38 ng/mL
- Concentration of vortioxetine in plasma, Mean ([2]; blood sampling time 168 h): 31.34 ng/mL
- Concentration of vortioxetine in plasma, Mean ([2]; blood sampling time 216 h): 13.35 ng/mL
- Concentration of vortioxetine in plasma, Mean ([2]; blood sampling time 264 h): 6.29 ng/mL
- Concentration of vortioxetine in plasma, Mean ([2]; blood sampling time 312 h): 4.07 ng/mL
- Concentration of vortioxetine in plasma, Mean ([2]; blood sampling time 360 h): 2.26 ng/mL
- Concentration of vortioxetine in plasma, Mean ([2]; blood sampling time 504 h): 1.73 ng/mL
- Concentration of vortioxetine in plasma, Mean ([2]; blood sampling time 672 h): 1.88 ng/mL
- AUC(0-t), Mean [2]: 6143.08 ng·h/mL
- AUC(0-∞), Mean [2]: 6503.21 ng·h/mL
- Cmax, Mean [2]: 38.18 ng/mL
- MRT(0-∞), Mean [2]: 227.18 h
- Tmax, Mean [2]: 136.00 h
- t1/2z, Mean [2]: 126.06 h
